Measurements published in US10604782B2, “High-throughput fluorescent screening assay for inhibitors of gram-negative bacterial iron uptake” (Kansas State University Research Foundation, priority 2015, dated 2020).
Converted amounts (≈) assume the structure as drawn. Where two headings read alike, the source gives them in different places.

What was measured:
[1] = system: FeEnt utilization by E. coli OKN3 + pITS23 (FepA); test: Siderophore nutrition test, FeEnt; assay type: cell-based, Escherichia coli; conditions: for growth halo phenotype in siderophore nutrition test, in words: 100 μM compound (FIG. 6A)
[2] = system: Fc utilization by E. coli OKN3 + pITS23 (transported by FhuA); test: Siderophore nutrition test, Fc; assay type: cell-based, Escherichia coli
[3] = system: killing of E. coli MG1655 by colicin B (FepA, TonB-dependent); assay type: cell-based, Escherichia coli
[4] = system: FeEnt utilization by A. baumannii; test: FeEnt siderophore nutrition test in A. baumannii; assay type: cell-based, Acinetobacter baumannii
[5] = system: A. baumannii 17978; test: Minimal inhibitory concentration assay in LB, A. baumannii; assay type: cell-based, Acinetobacter baumannii
[6] = system: TonB; assay type: cell-based, Escherichia coli
[7] = system: TonB-dependent FeEnt uptake through FepA (E. coli OKN3/pITS23FepAS271C-FM); test: microbe, parasite or virus in culture; assay type: cell-based, Escherichia coli; conditions: for IC50: read-out: 50% Inhibition, Concentration (IC50)
[8] = system: E. coli MG1655; test: Minimal inhibitory concentration assay in LB; assay type: cell-based, Escherichia coli; conditions: two-fold dilutions up to […]
[9] = system: TonB-dependent FeEnt uptake through FepAS271C-FM; assay type: cell-based, Escherichia coli
[10] = E. coli OKN3 + pITS23, 50 μM FeEnt, 100 μM compound in DMSO, untreated 1.45 ± 0.123
[11] = E. coli OKN3 + pITS23, 50 μM Fc, 100 μM compound in DMSO, untreated 1.54 ± 0.105
[12] = percent killing of MG1655 by ColB in the presence of sub-toxic concentration of compound in DMSO, untreated 98.34 ± 2.38
[13] = Escherichia coli, MG1655, E. coli MG1655 in LB, dash = MIC >[…], read-out: MIC
[14] = A. baumannii, 50 μM FeEnt, 100 μM compound in DMSO, untreated 1.16 ± 0.065
[15] = Acinetobacter baumannii, 17978, read-out: MIC
[16] = halo increase >5% or no halo, killing prevented by >5%
[17] = Escherichia coli, […], cells pre-incubated 30 minutes at 37° C. with inhibitor
[18] = […], cells pre-incubated 30 minutes at 37° C. with inhibitor

| Compound | FeEnt Halo [1, 10] | Fc Halo [2, 11] | % Colicin B killing [3, 12] | MIC [8, 13] | FeEnt Halo [4, 14] | MIC [5, 15] | further results |
| --- | --- | --- | --- | --- | --- | --- | --- |
| Zinc pyrithione |  |  |  |  |  |  | FeEnt Halo [1]: 0 cm; Fc Halo [2]: 0 cm; % Colicin B killing [3]: 20.4 ± 5.90%; FeEnt Halo [4]: 0 cm; MIC ([5]; read-out: MIC): 16 µM; inhibition in the secondary screens (FeEnt utilization, Fc utilization, ColB killing) [6]: inhibition in all three of the three secondary screens |
| [N-]=[N+]=[N-] [Azide, azide] |  |  |  |  |  |  | 100% Inhibition, Concentration (IC100) [7]: 18 mM; IC50 [7]: 9 mM |
| O=c1cc(-c2ccccc2)oc2cc(O)c(O)c(O)c12 [Baicalein] | 1.65 ± 0.050 cm | 1.65 ± 0.045 cm | 54.6 ± 13.2% | > 512 µM | 1.23 ± 0.098 cm | > 512 µM | growth halo phenotype in siderophore nutrition test, in words [1]: two unique halos; inhibition in the secondary screens (FeEnt utilization, Fc utilization, ColB killing) [6, 16]: inhibition in all three of the three secondary screens |
| O=C1C(Cl)=C(Cl)C(=O)C(Cl)=C1Cl [P-Chloranil] | 1.51 ± 0.148 cm | 1.57 ± 0.059 cm |  |  | 1.14 ± 0.015 cm |  | % Colicin B killing [3]: 93.0 ± 3.36%; MIC ([8]; E. coli MG1655 in LB, […]): — (If MIC >512 μM, value not listed); MIC ([5]; A. baumannii 17978 in LB, two-fold dilutions up to […], […]): — (If MIC >512 μM, value not listed); differential impact on transport of FeEnt, Fc and ColB, in words [6]: inhibited ColB but not FeEnt or Fc transport |
| CC(=O)[O-].CC(=O)[O-].[Cd+2] [Cadmium acetate] |  |  |  |  |  |  | FeEnt Halo [1]: 2.22 ± 0.076 cm; Fc Halo [2]: 2.08 ± 0.42 cm; % Colicin B killing [3]: 98.4 ± 0.43%; FeEnt Halo [4]: 0 cm; MIC ([5]; read-out: MIC): 256 µM; inhibition in the secondary screens (FeEnt utilization, Fc utilization, ColB killing) [6]: inhibitory in two of the three secondary assays |
| C[C@@](Cc1ccc(O)c(O)c1)(NN)C(=O)O [Carbidopa] | 1.58 ± 0.089 cm | 1.65 ± 0.055 cm | 96.0 ± 2.0% | > 512 µM | 1.10 ± 0.015 cm | > 512 µM |  |
| N#CC(C#N)=NNc1cccc(Cl)c1 [CCCP, carbonyl cyanide m-chlorophenylhydrazone] |  |  |  |  |  |  | IC50 [7, 17]: 0.005 mM; 100% Inhibition, Concentration (IC100) [7, 18]: 0.01 mM; fluorescence recovery (FeEnt uptake) in words ([9]; 96-well plate, 10 nM FeEnt, CCCP 20 uM, 50 min time course (FIG. 2B)): fully prevented fluorescence recovery; recovered fluorescence in words ([9]; 384-well plate format, increasing concentrations of CCCP (FIG. 3)): dose-responsive decrease in recovered fluorescence |
| Thimerosal |  |  |  |  |  |  | FeEnt Halo [1]: 0 cm; Fc Halo [2]: 0 cm; % Colicin B killing [3]: 98.6 ± 0.98%; FeEnt Halo [4]: 0 cm; MIC ([5]; read-out: MIC): 1 µM; inhibition in the secondary screens (FeEnt utilization, Fc utilization, ColB killing) [6]: inhibition in all three of the three secondary screens |
| O=c1oc2c(O)c(O)cc3c(=O)oc4c(O)c(O)cc1c4c23 [Ellagic acid] | 1.61 ± 0.075 cm | 1.36 ± 0.197 cm | 82.9 ± 3.75% | > 512 µM | 1.08 ± 0.041 cm | 256 µM (≈ 77.4 µg/mL) | growth halo phenotype in siderophore nutrition test, in words [1]: two unique halos; inhibition in the secondary screens (FeEnt utilization, Fc utilization, ColB killing) [6, 16]: inhibitory in two of the three secondary assays |
| Cc1cc(N)c2ccccc2[n+]1CCCCCCCCCC[n+]1c(C)cc(N)c2ccccc21 [Dequalinium Chloride] | 1.43 ± 0.110 cm | 1.55 ± 0.131 cm | 98.7 ± 1.10% | > 512 µM | 1.14 ± 0.017 cm | > 512 µM |  |
| N.N.O=C([O-])C1(C(=O)[O-])CCC1.[Pt+2] [Carboplatin] | 1.54 ± 0.031 cm | 1.62 ± 0.015 cm | 100 ± 0.00% |  | 1.10 ± 0.050 cm |  | MIC ([8]; E. coli MG1655 in LB, dash = MIC >[…]): — (If MIC >512 μM, value not listed); MIC ([5]; A. baumannii 17978 in LB, two-fold dilutions up to […], dash = MIC >[…]): — (If MIC >512 μM, value not listed) |
| COc1cccc(O)c1O [3-Methoxycatechol] | 1.50 ± 0.100 cm | 1.60 ± 0.500 cm | 98.2 ± 2.27% | > 512 µM | 1.12 ± 0.025 cm | > 512 µM |  |
| O=[N+]([O-])c1ccc(O)c([N+](=O)[O-])c1 [DNP, 2,4-dinitrophenol] |  |  |  |  |  |  | IC50 [7, 17]: 0.75 mM; effect on FeEnt binding and transport in words ([7]; FeEnt plus energy poison added to cells (FIG. 1A)): did not affect binding but prevented transport; 100% Inhibition, Concentration (IC100) [7, 18]: 1.5 mM |
| O=c1c2ccccc2[se]n1-c1ccccc1 [Ebselen] | 0 cm | 0 cm | 93.4 ± 2.25% |  | 0 cm | 32 µM (≈ 8.77 µg/mL) | MIC ([8]; E. coli MG1655 in LB, dash = MIC >[…], read-out: MIC): 128 µM (≈ 35.1 µg/mL) |
| arsenate |  |  |  |  |  |  | 100% Inhibition, Concentration (IC100) [7]: 180 mM; IC50 [7]: 90 mM |
